Structures are written as SMILES. Some results are limits rather than exact numbers.

Sequence of unphosphorylated-BTK kinase domain (UP-BTK), GST-tagged human BTK (389-659aa) (Q06187 389-659): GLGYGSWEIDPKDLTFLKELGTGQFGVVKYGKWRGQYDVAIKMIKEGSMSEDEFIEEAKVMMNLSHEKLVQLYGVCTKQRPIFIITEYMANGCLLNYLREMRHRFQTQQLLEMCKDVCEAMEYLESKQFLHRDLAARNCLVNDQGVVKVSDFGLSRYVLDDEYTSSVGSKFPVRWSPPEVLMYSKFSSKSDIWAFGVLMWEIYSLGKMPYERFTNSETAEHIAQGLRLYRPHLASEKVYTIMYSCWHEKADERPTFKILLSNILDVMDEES

The first assay concerns the target unphosphorylated-BTK kinase domain (UP-BTK), GST-tagged human BTK (389-659aa) (Homo sapiens (Human), UniProt Q06187). The assay is described as follows: BTK Kinase Lanthascreen Binding Assay. The settings on record: Lanthascreen binding, 60 minutes incubation; pIC50 = negative log of the IC50 in molar. The procedure: BTK Kinase Lanthascreen Binding Assay:
A BTK kinase lanthascreen binding assay monitors compound binding to unphosphorylated-BTK kinase domain (UP-BTK), by competing with a fluorescent labeled tracer. […] Data were analyzed using Xlfit™ version 5.3 from ID Business Solutions (Guildford), Microsoft Excel add-in. pIC50 refers to the negative log of the IC50 in molar.
Turning to `C=CC(=O)N[C@H]1CCCC[C@H]1NC(=O)c1sc2nccc3c2c1NC(=O)N3c1ccc(Oc2ccccc2)cn1` [Example 291, N-((1R,2S)-2-Acrylamidocyclohexyl)-4-oxo-5-(5-phenoxypyridin-2-yl)-4,5-dihydro-3H-1-thia-3,5,8-triazaacenaphthylene-2-carboxamide], the “BTK_I_binding pIC50” value worked out at 8.60.

Turning to `C=CC(=O)N[C@H]1CCCC[C@H]1NC(=O)c1sc2nccc3c2c1NC(=O)N3c1cnc(Oc2ccccc2)cn1` [Example 295, N-((1R,2S)-2-Acrylamidocyclohexyl)-4-oxo-5-(5-phenoxypyrazin-2-yl)-4,5-dihydro-3H-1-thia-3,5,8-triazaacenaphthylene-2-carboxamide], the “BTK_I_binding pIC50” value stood at 8.39.

In the case of `C=CC(=O)N[C@H]1CCC[C@H]1NC(=O)c1sc2nccc3c2c1NC(=O)N3c1ncc(Oc2ccccc2)cn1` [Example 296, N-((1R,2S)-2-acrylamidocyclopentyl)-4-oxo-5-(5-phenoxypyrimidin-2-yl)-4,5-dihydro-3H-1-thia-3,5,8-triazaacenaphthylene-2-carboxamide], the “BTK_I_binding pIC50” value was determined as 8.39.

As for `C=CC(=O)N[C@H]1CCCC[C@H]1NC(=O)c1sc2nccc3c2c1NC(=O)N3c1ncc(Oc2ccccc2)cn1` [Example 297, N-((1R,2S)-2-Acrylamidocyclohexyl)-4-oxo-5-(5-phenoxypyrimidin-2-yl)-4,5-dihydro-3H-1-thia-3,5,8-triazaacenaphthylene-2-carboxamide], the “BTK_I_binding pIC50” value came out at 8.53.

On to `C=CC(=O)N[C@H]1CCC[C@H]1NC(=O)c1sc2nccc3c2c1NC(=O)N3c1cnc(CC(C)C)cc1C` [Example 298, N-((1R,2S)-2-Acrylamidocyclopentyl)-5-(S)-(6-isobutyl-4-methylpyridin-3-yl)-4-oxo-4,5-dihydro-3H-1-thia-3,5,8-triazaacenaphthylene-2-carboxamide], for which the “BTK_I_binding pIC50” value stood at 8.09.

For `C=CC(=O)N[C@H]1CCCC[C@H]1NC(=O)c1sc2nccc3c2c1NC(=O)N3c1cnc(Oc2ccccc2)nc1` [Example 302, N-((1R,2S)-2-Acrylamidocyclohexyl)-4-oxo-5-(2-phenoxypyrimidin-5-yl)-4,5-dihydro-3H-1-thia-3,5,8-triazaacenaphthylene-2-carboxamide], the “BTK_I_binding pIC50” value was determined as 8.23.

`C=CC(=O)N[C@H]1CCC[C@H]1NC(=O)c1sc2nccc3c2c1NC(=O)N3c1ccc(Oc2cccnn2)cc1C` [Example 305, N-((1R,2S)-2-Acrylamidocyclopentyl)-5-(2-methyl-4-(pyridazin-3-yloxy)phenyl)-4-oxo-4,5-dihydro-3H-1-thia-3,5,8-triazaacenaphthylene-2-carboxamide]: the “BTK_I_binding pIC50” value is listed as 7.84.

As for `C=CC(=O)N[C@@H]1CCC[C@H]1NC(=O)c1sc2nccc3c2c1NC(=O)N3c1ncc(Oc2ccccc2)cn1` [Example 307, N-((1R,2R)-2-Acrylamidocyclopentyl)-4-oxo-5-(5-phenoxypyrimidin-2-yl)-4,5-dihydro-3H-1-thia-3,5,8-triazaacenaphthylene-2-carboxamide], the “BTK_I_binding pIC50” value came to 7.58.

Staying with this assay, now noted: compound, 50 nM Tracer 236, 2 nM anti-GST antibody, 60 minutes; pIC50 = negative log of the IC50 in molar.
Turning to `N[C@H]1CCC[C@H]1NC(=O)c1sc2nccc3c2c1NC(=O)N3c1ccnc(-c2ccccc2)c1` [Example 263, N-((1R,2S)-2-Aminocyclopentyl)-4-oxo-5-(2-phenylpyridin-4-yl)-4,5-dihydro-3H-1-thia-3,5,8-triazaacenaphthylene-2-carboxamide], the “BTK_I_binding pIC50” value was 6.38.

With `N[C@H]1CCC[C@H]1NC(=O)c1sc2nccc3c2c1NC(=O)N3c1ccc(Oc2ccccc2)nc1` [Example 265, N-((1R,2S)-2-Aminocyclopentyl)-4-oxo-5-(6-phenoxypyridin-3-yl)-4,5-dihydro-3H-1-thia-3,5,8-triazaacenaphthylene-2-carboxamide], the “BTK_I_binding pIC50” value came out at 6.24.

Regarding `N[C@H]1CCC[C@H]1NC(=O)c1sc2nccc3c2c1NC(=O)N3c1cc(-c2ccccc2)ccn1` [Example 267, N-((1R,2S)-2-Aminocyclopentyl)-4-oxo-5-(4-phenylpyridin-2-yl)-4,5-dihydro-3H-1-thia-3,5,8-triazaacenaphthylene-2-carboxamide], the “BTK_I_binding pIC50” value is reported as 6.21.

For `N[C@@H]1CCC[C@H]1NC(=O)c1sc2nccc3c2c1NC(=O)N3c1ccc(Oc2ccccc2)nc1` [Example 269, N-((1R,2R)-2-Aminocyclopentyl)-4-oxo-5-(6-phenoxypyridin-3-yl)-4,5-dihydro-3H-1-thia-3,5,8-triazaacenaphthylene-2-carboxamide], the “BTK_I_binding pIC50” value turned out to be 6.00.

The assay is the same for the next values; noted with them: read-out: BTK_I_binding pIC50 (converted).
For the molecule `O=C(N[C@@H]1CCC[C@H]1O)c1sc2nccc3c2c1NC(=O)N3c1ccnc(-c2ccccc2)c1` [Example 268, N-((1R,2R)-2-Hydroxycyclopentyl)-4-oxo-5-(2-phenylpyridin-4-yl)-4,5-dihydro-3H-1-thia-3,5,8-triazaacenaphthylene-2-carboxamide], the IC50 is 631 nM.

Consider `CC(C)c1cc(N2C(=O)Nc3c(C(=O)N[C@@H]4CCC[C@@H]4N)sc4nccc2c34)ccn1` [Example 270, N-((1R,2S)-2-Aminocyclopentyl)-5-(2-isopropylpyridin-4-yl)-4-oxo-4,5-dihydro-3H-1-thia-3,5,8-triazaacenaphthylene-2-carboxamide], for which the IC50 is > 1000 nM.

Regarding `CC(C)Oc1ccc(N2C(=O)Nc3c(C(=O)N[C@@H]4CCC[C@@H]4N)sc4nccc2c34)cc1` [Example 271, N-((1R,2S)-2-Aminocyclopentyl)-5-(4-isopropoxyphenyl)-4-oxo-4,5-dihydro-3H-1-thia-3,5,8-triazaacenaphthylene-2-carboxamide], the IC50 was > 1000 nM.

Turning to `N[C@@H]1CCCC[C@H]1NC(=O)c1sc2nccc3c2c1NC(=O)N3c1ccc(Oc2ccccc2)nc1` [Example 277, N-((1R,2R)-2-Aminocyclohexyl)-4-oxo-5-(6-phenoxypyridin-3-yl)-4,5-dihydro-3H-1-thia-3,5,8-triazaacenaphthylene-2-carboxamide], the IC50 was > 1000 nM.

Turning to `N[C@H]1CCC[C@H]1NC(=O)c1sc2nccc3c2c1NC(=O)N3c1cnnc(-c2ccccc2)c1` [Example 278, N-((1R,2S)-2-Aminocyclopentyl)-4-oxo-5-(6-phenylpyridazin-4-yl)-4,5-dihydro-3H-1-thia-3,5,8-triazaacenaphthylene-2-carboxamide], the IC50 is > 1000 nM.

For the molecule `C=CC(=O)N[C@H]1CCC[C@H](NC(=O)c2sc3nccc4c3c2NC(=O)N4c2ccnc(-c3ccccc3)c2)C1` [Example 279, N-((1S,3S)-3-Acrylamidocyclohexyl)-4-oxo-5-(2-phenylpyridin-4-yl)-4,5-dihydro-3H-1-thia-3,5,8-triazaacenaphthylene-2-carboxamide], the IC50 is > 1000 nM.

As for `CC(=O)N[C@H]1CCC[C@H]1NC(=O)c1sc2nccc3c2c1NC(=O)N3c1ccnc(-c2ccccc2)c1` [Example 280, N-((1R,2S)-2-Acetamidocyclopentyl)-4-oxo-5-(2-phenylpyridin-4-yl)-4,5-dihydro-3H-1-thia-3,5,8-triazaacenaphthylene-2-carboxamide], the IC50 was > 1000 nM.

As to `N[C@H]1CCC[C@H]1NC(=O)c1sc2nccc3c2c1NC(=O)N3c1cc(-c2ccccc2)ncn1` [Example 281, N-((1R,2S)-2-Aminocyclopentyl)-4-oxo-5-(6-phenylpyrimidin-4-yl)-4,5-dihydro-3H-1-thia-3,5,8-triazaacenaphthylene-2-carboxamide], the IC50 is > 1000 nM.

On to `C=CC(=O)N[C@H]1CC[C@H](NC(=O)c2sc3nccc4c3c2NC(=O)N4c2ccnc(-c3ccccc3)c2)C1` [Example 282, N-((1S,3S)-3-Acrylamidocyclopentyl)-4-oxo-5-(2-phenylpyridin-4-yl)-4,5-dihydro-3H-1-thia-3,5,8-triazaacenaphthylene-2-carboxamide], for which the IC50 was > 1000 nM.

Regarding `C=CC(=O)N[C@H]1CCC[C@@H](NC(=O)c2sc3nccc4c3c2NC(=O)N4c2ccnc(-c3ccccc3)c2)C1` [Example 283, N-((1R,3S)-3-Acrylamidocyclohexyl)-4-oxo-5-(2-phenylpyridin-4-yl)-4,5-dihydro-3H-1-thia-3,5,8-triazaacenaphthylene-2-carboxamide], the IC50 is > 1000 nM.

Turning to `N[C@H]1CCC[C@H]1NC(=O)c1sc2nccc3c2c1NC(=O)N3c1cncc(-c2ccccc2)c1` [Example 284, N-((1R,2S)-2-Aminocyclopentyl)-4-oxo-5-(5-phenylpyridin-3-yl)-4,5-dihydro-3H-1-thia-3,5,8-triazaacenaphthylene-2-carboxamide], the IC50 was > 1000 nM.

As to `N[C@H]1CCC[C@H]1NC(=O)c1sc2nccc3c2c1NC(=O)N3c1cccc(-c2ccccn2)c1` [Example 285, N-((1R,2S)-2-Aminocyclopentyl)-4-oxo-5-(3-(pyridin-2-yl)phenyl)-4,5-dihydro-3H-1-thia-3,5,8-triazaacenaphthylene-2-carboxamide], the IC50 was > 1000 nM.

For `CNCC(=O)N[C@@H]1CCC[C@@H]1NC(=O)c1sc2nccc3c2c1NC(=O)N3c1ccnc(-c2ccccc2)c1` [Example 286, N-((1S,2R)-2-(2-(Methylamino)acetamido)cyclopentyl)-4-oxo-5-(2-phenylpyridin-4-yl)-4,5-dihydro-3H-1-thia-3,5,8-triazaacenaphthylene-2-carboxamide], the IC50 is > 1000 nM.

Consider `Cc1cc(OC2CCOCC2)ccc1N1C(=O)Nc2c(C(=O)N[C@@H]3CCC[C@@H]3N)sc3nccc1c23` [Example 287, N-((1R,2S)-2-Aminocyclopentyl)-5-(2-methyl-4-((tetrahydro-2H-pyran-4-yl)oxy)phenyl)-4-oxo-4,5-dihydro-3H-1-thia-3,5,8-triazaacenaphthylene-2-carboxamide], for which the IC50 is > 1000 nM.

As to `N[C@H]1CCC[C@H]1NC(=O)c1sc2nccc3c2c1NC(=O)N3c1ccc(OC2CCOCC2)cc1` [Example 288, N-((1R,2S)-2-Aminocyclopentyl)-4-oxo-5-(4-((tetrahydro-2H-pyran-4-yl)oxy)phenyl)-4,5-dihydro-3H-1-thia-3,5,8-triazaacenaphthylene-2-carboxamide], the IC50 was > 1000 nM.

The values are drawn from patent US10934310B2, “Inhibitors of Bruton's tyrosine kinase and method of their use” (JANSSEN PHARMACEUTICA NV, priority 2015, dated 2021).
